From patent US20210330611A1, “THERAPY FOR NEUROLOGICAL DISEASES/DISORDERS” (priority 2020, published 2021)
Read-outs that look alike come from different tables or passages of the source.

How the values were obtained:
Assay type in all cases: cell-based, rat
[1] = tested on: fibrin-induced microglia activation; assay: Image-based assay of fibrin-induced microglia activation (HTS and dose response); details: for inhibition at 10 µM: read-out: Fibrin % inhibition; for IC50: read-out: fib_IC50
[2] = tested on: LPS-induced microglia activation; assay: Image-based assay of LPS-induced microglia activation (HTS and dose response); details: for inhibition at 10 µM: read-out: LPS % inhibition; for IC50: read-out: LPS_IC50
[3] = tested on: fibrin- and LPS-induced microglia activation; assay: cells; details: for Activity: Table 7, fib = fibrin, LPS, tox = toxicity
[4] = Rattus norvegicus, Microglia, primary microglia HTS, fibrin stimulation, increased cell size (>800 μm^2) as marker of activation
[5] = Rattus norvegicus, Microglia, 48 h, primary microglia HTS, LPS stimulation, increased cell size (>800 μm^2) as marker of activation
[6] = quadrant by fibrin and LPS inhibition in HTS of 1907 compounds
[7] = Rattus norvegicus, Microglia, 48 h
[8] = Rattus norvegicus, Microglia, Table 7

CCC(=O)O[C@H]1CC[C@H]2[C@@H]3CCC4=CC(=O)CC[C@]4(C)[C@H]3CC[C@]12C [Testosterone Propionate]
inhibition at 10 µM ([1]; Rattus norvegicus, Microglia, primary microglia HTS, 10 μM, fibrin-stimulated, cell size >800 μm^2 as marker of activation): 21%
inhibition at 10 µM ([2]; Rattus norvegicus, Microglia, primary microglia HTS, 10 μM, LPS-stimulated, cell size >800 μm^2 as marker of activation): 8%
Quadrant (FIG. 5b) ([3]; HTS of 1907 compounds, quadrant by fibrin and LPS inhibition): Q4

CC(C)n1c(/C=C/C(O)CC(O)CC(=O)O)c(-c2ccc(F)cc2)c2ccccc21 (stereo not shown) [Fluvastatin]
inhibition at 10 µM [1, 4]: 110%
inhibition at 10 µM [2, 5]: 101%
Quadrant (FIG. 5b) [3, 6]: Q2

NCCCC[C@H](N[C@@H](CCc1ccccc1)C(=O)O)C(=O)N1CCC[C@H]1C(=O)O [Lisinopril]
inhibition at 10 µM ([1]; Rattus norvegicus, Microglia): 1%
inhibition at 10 µM [2, 7]: 3%
Quadrant (FIG. 5b) [3]: Q4

CN1C(=O)CN=C(c2ccccc2)c2cc(Cl)ccc21 [Diazepam]
inhibition at 10 µM ([1]; Rattus norvegicus, Microglia): -19%
inhibition at 10 µM ([2]; Rattus norvegicus, Microglia): 5%
Quadrant (FIG. 5b) [3]: Q4

Cc1cc(/C=C/c2ccc3cc(N(C)C)ccc3[n+]2C)c(C)n1-c1ccccc1 [Pyrvinium]
inhibition at 10 µM ([1]; Rattus norvegicus, Microglia): 113%
inhibition at 10 µM ([2]; Rattus norvegicus, Microglia): 115%
Quadrant (FIG. 5b) [3]: Q2

CC/C(=C(\c1ccccc1)c1ccc(OCCN(C)C)cc1)c1ccccc1 [Tamoxifen]
inhibition at 10 µM ([1]; Rattus norvegicus, Microglia): 14%
inhibition at 10 µM ([2]; Rattus norvegicus, Microglia): 5%
Quadrant (FIG. 5b) [3]: Q4

N.N.[Cl][Pt][Cl] [Cisplatin]
Fibrin % inhibition ([1]; primary HTS, 10 μM, fibrin-stimulated primary microglia): −13%
LPS % inhibition ([2]; primary HTS, 10 μM, LPS-stimulated primary microglia): 20%
Quadrant (FIG. 5b) ([3]; primary HTS, 10 μM): Q4

Nc1ccc(C(=O)Oc2ccccc2)c(O)c1 [Fenamisal, Phenyl Aminosalicylate]
Fibrin % inhibition ([1]; primary microglia HTS, fibrin stimulation, compounds at 10 μM): −8%
LPS % inhibition ([2]; primary microglia HTS, LPS stimulation, compounds at 10 μM): 16%
Quadrant (FIG. 5b) ([3]; classification by fibrin and LPS inhibition, HTS at 10 μM): Q4

O=C1OCCN1/N=C/c1ccc([N+](=O)[O-])o1 [Furazolidone]
inhibition at 10 µM ([1]; Rattus norvegicus, Microglia): 3%
inhibition at 10 µM [2, 7]: 8%
Quadrant (FIG. 5b) [3]: Q4

CC(C)[N+]1(C)[C@@H]2CC[C@H]1CC(OC(=O)C(CO)c1ccccc1)C2.[Br-] (stereo partly shown) [Ipratropium Bromide]
Fibrin % inhibition [1]: 6%
LPS % inhibition [2]: 8%
Quadrant (FIG. 5b) [3]: Q4

COc1cc([C@@H]2c3cc4c(c(O)c3C[C@H]3COC(=O)[C@@H]32)OCO4)cc(OC)c1OC [beta-peltatin]
fib_HS ([1]; Hill slope of fibrin dose response, Table 7): −2.10
fib specificity ([1]; Table 7): 0.5
IC50 ([1]; Table 7): 505 nM
LPS_HS ([2]; Hill slope of LPS dose response, Table 7): −1.50
LPS specificity ([2]; Table 7): 2.0
IC50 ([2]; Table 7): 252 nM
Activity [3]: fib/LPS

COc1ccc2cc([C@H](C)C(=O)O)ccc2c1 [Naproxen]
inhibition at 10 µM ([1]; Rattus norvegicus, Microglia): -25%
inhibition at 10 µM [2, 7]: 15%
Quadrant (FIG. 5b) [3]: Q4

NCCCC(O)(P(=O)(O)O)P(=O)(O)O [Alendronic acid]
inhibition at 10 µM ([1]; Rattus norvegicus, Microglia): 5%
inhibition at 10 µM ([2]; Rattus norvegicus, Microglia): 18%
Quadrant (FIG. 5b) [3]: Q4

CCN(CC)CC(=O)Nc1c(C)cccc1C [Lidocaine]
inhibition at 10 µM ([1]; Rattus norvegicus, Microglia): -23%
inhibition at 10 µM [2, 7]: 8%
Quadrant (FIG. 5b) [3]: Q4

CC(C)(C)c1ccc(C(O)CCCN2CCC(C(O)(c3ccccc3)c3ccccc3)CC2)cc1 (stereo not shown) [Terfenadine]
inhibition at 10 µM ([1]; Rattus norvegicus, Microglia): 19%
inhibition at 10 µM ([2]; Rattus norvegicus, Microglia): 7%
Quadrant (FIG. 5b) [3]: Q4

C[C@]12CC[C@@H]3c4ccc(O)cc4CC[C@H]3[C@@H]1C[C@H](O)[C@@H]2O [Epiestriol]
inhibition at 10 µM ([1]; Rattus norvegicus, Microglia): -25%
inhibition at 10 µM ([2]; Rattus norvegicus, Microglia): 6%
Quadrant (FIG. 5b) [3]: Q4

CCCCC(C)(O)C/C=C/[C@H]1[C@H](O)CC(=O)[C@@H]1CCCCCCC(=O)OC (mixture of isomers) [Misoprostol]
inhibition at 10 µM [1, 4]: 13%
inhibition at 10 µM [2, 5]: 32%
Quadrant (FIG. 5b) [3, 6]: Q4

CC(C)CCCCCOC(=O)COc1ccc(Cl)cc1Cl
IC50 [1, 8]: 906 nM
IC50 [2, 8]: 1010 nM
Activity [3]: fib/LPS
